Assay results reported in ChEMBL document CHEMBL1201862, “PubChem BioAssay data set” (2004).
“And” between values parts separate entries of the source, which are not always exact repeats. Equal entries are not always repeated.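 These data come from cells grown in 96-well plates and exposed to compound for 48 hours at five concentrations. Here, GI50 denotes the concentration required for 50% inhibition of growth.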 The source made the active and inactive calls. Cut-off read from the data, not from the text of the source: active = GI50 up to about 1.1 µM and inactive = higher. Starred links: 1 amine or outer side, 2 acyl side, 3 side chain; linkers in the order of their positions; H or OH if unused. Positions of bridges follow the written chain, without caps; N, C: chain ends. Non-standard residues stand in square brackets, D forms with d. Residues, ends and D or L forms follow the SMILES beside them. Chains are numbered I, II in the order given. Actinocin(9to1) = Cc1c2oc3c(C)ccc(C(=O)[*:1])c3nc-2c(C(=O)[*:2])c(N)c1=O; NMeF = CN[CH](Cc1ccccc1)C(=O)O; Sar = CNCC(=O)O

Tests used:
Experiment in all cases: NCI tumour cell line growth inhibition, 48 h
HOP-92 = tested on: HOP-92
SK-MEL-2 = tested on: SK-MEL-2
KM12 = tested on: KM12
SF-268 = tested on: SF-268
RPMI-8226 = tested on: RPMI-8226
CAKI-1 = tested on: CAKI-1
SK-OV-3 = tested on: SK-OV-3
SF-539 = tested on: SF-539
RXF 393 = tested on: RXF 393
SW-620 = tested on: SW-620
MDA-MB-435 = tested on: MDA-MB-435
OVCAR-3 = tested on: OVCAR-3
HCC 2998 = tested on: HCC 2998
SNB-75 = tested on: SNB-75
SK-MEL-28 = tested on: SK-MEL-28
A498 = tested on: A498
T47D = tested on: T47D
UACC-257 = tested on: UACC-257
NCI-H226 = tested on: NCI-H226
BT-549 = tested on: BT-549
Malme-3M = tested on: Malme-3M
PC-3 = tested on: PC-3
ACHN = tested on: ACHN
NCI-H23 = tested on: NCI-H23
DU-145 = tested on: DU-145
HOP-62 = tested on: HOP-62
M14 = tested on: M14
OVCAR-4 = tested on: OVCAR-4
SK-MEL-5 = tested on: SK-MEL-5
SF-295 = tested on: SF-295
OVCAR-8 = tested on: OVCAR-8
Hs-578T = tested on: Hs-578T
COLO 205 = tested on: COLO 205
SR = tested on: SR
SN12C = tested on: SN12C
NCI/ADR-RES = tested on: NCI/ADR-RES
HL-60 = tested on: HL-60
IGROV-1 = tested on: IGROV-1
786-0 = tested on: 786-0
NCI-H460 = tested on: NCI-H460
EKVX = tested on: EKVX
HT-29 = tested on: HT-29
MOLT-4 = tested on: MOLT-4
HCT-15 = tested on: HCT-15
CCRF-CEM = tested on: CCRF-CEM
OVCAR-5 = tested on: OVCAR-5
MDA-MB-231 = tested on: MDA-MB-231
U-251 = tested on: U-251
UO-31 = tested on: UO-31
UACC-62 = tested on: UACC-62
K562 = tested on: K562
SNB-19 = tested on: SNB-19
HCT-116 = tested on: HCT-116
TK-10 = tested on: TK-10
MCF7 = tested on: MCF7
LOX IMVI = tested on: LOX IMVI
A549 = tested on: A549
NCI-H522 = tested on: NCI-H522
MDA-N = tested on: MDA-N

Measured: GI50

Cc1c2oc3c(C)ccc(C(=O)NC4C(=O)NC(C(C)C)C(=O)N5CCCC5C(=O)N(C)CC(=O)N(C)C(Cc5ccccc5)C(=O)OC4C)c3nc-2c(C(=O)NC2C(=O)NC(C(C)C)C(=O)N3CCCC3C(=O)N(C)CC(=O)N(C)C(Cc3ccccc3)C(=O)OC2C)c(N)c1=O (configuration not stated) (I: TVP[Sar][NMeF] / II: TVP[Sar][NMeF]; ester I:1-I:C, II:1-II:C; linker I:N-II:N via Actinocin(9to1); configuration not given here)
active: HOP-92 < 10 nM and 14.9 nM | SK-MEL-2 0.00957 µM | KM12 0.00504 µM | SF-268 < 10 nM and 9.29 nM | RPMI-8226 < 10 nM and 9.95 nM | CAKI-1 < 10 nM and 17.3 nM | SK-OV-3 0.0157 µM | SF-539 < 10 nM and 5.64 nM | RXF 393 < 10 nM and 12.5 nM | SW-620 < 10 nM and 6.17 nM | MDA-MB-435 < 10 nM and 6.21 nM | OVCAR-3 < 10 nM and 12.9 nM | HCC 2998 0.00887 µM | SNB-75 < 10 nM and 7.11 nM | SK-MEL-28 < 10 nM and 7.33 nM | A498 0.0108 µM | T47D 0.00521 µM | UACC-257 < 10 nM and 12.8 nM | NCI-H226 < 10 nM and 16.5 nM | BT-549 0.0189 µM | Malme-3M < 10 nM and 6.65 nM | PC-3 0.0112 µM | ACHN 0.00989 µM | NCI-H23 < 10 nM and < 11.1 nM | DU-145 0.00807 µM | HOP-62 < 10 nM and 9.31 nM | M14 < 10 nM and 19.6 nM | OVCAR-4 < 10 nM and 6.64 nM | SK-MEL-5 < 10 nM and 6 nM | SF-295 < 10 nM and 10.8 nM | OVCAR-8 0.0127 µM | Hs-578T < 10 nM and 7.24 nM

Fc1c(F)c(C(F)(F)F)c(F)c(F)c1N/N=C/c1cn(Cc2ccccc2)c2ccccc12
inactive: HOP-92 24 µM | SK-MEL-2 25.6 µM | KM12 20 µM | SF-268 43.2 µM | COLO 205 13.5 µM | SR 22.9 µM | RPMI-8226 25.9 µM | SN12C 29.2 µM | CAKI-1 21.3 µM | SK-OV-3 12.2 µM | SF-539 20 µM | NCI/ADR-RES 24.7 µM | HL-60 21.8 µM | RXF 393 17.7 µM | IGROV-1 27.5 µM | 786-0 23.2 µM | NCI-H460 12.1 µM | EKVX 18.4 µM | HT-29 18.2 µM | MOLT-4 23.3 µM | SW-620 30.9 µM | MDA-MB-435 22.1 µM | OVCAR-3 13.2 µM | CCRF-CEM 20.1 µM | OVCAR-5 19.2 µM | SNB-75 20 µM | MDA-MB-231 21 µM | U-251 34 µM | SK-MEL-28 34.8 µM | UO-31 23.4 µM | UACC-62 22.4 µM | K562 31 µM | A498 27.9 µM | SNB-19 30.1 µM | T47D 23.6 µM | UACC-257 21.5 µM | BT-549 30.2 µM | Malme-3M 30.4 µM | PC-3 27.4 µM | ACHN 26.7 µM | NCI-H23 27.5 µM | DU-145 29.2 µM | HOP-62 2.24 µM | M14 18.2 µM | OVCAR-4 23.4 µM | HCT-116 23.1 µM | SK-MEL-5 18.2 µM | TK-10 25.2 µM | MCF7 23.1 µM | SF-295 13.6 µM | OVCAR-8 36.6 µM | LOX IMVI 22.8 µM | A549 27.9 µM | NCI-H522 23.7 µM | Hs-578T 41.7 µM
25.2 µM: HCT-15

CC1CCC(=O)C(C(=O)CC2CC(=O)N(C)C(=O)C2)C1 (configuration not stated)
inactive: HOP-92 > 100 µM | SK-MEL-2 > 100 µM | KM12 > 100 µM | SF-268 > 100 µM | COLO 205 > 100 µM | RPMI-8226 > 100 µM | SN12C > 100 µM | CAKI-1 > 100 µM | SK-OV-3 > 100 µM | SF-539 > 100 µM | NCI/ADR-RES > 100 µM | HL-60 > 100 µM | RXF 393 > 100 µM | IGROV-1 > 100 µM | 786-0 > 100 µM | NCI-H460 > 100 µM | EKVX > 100 µM | HT-29 > 100 µM | MOLT-4 > 100 µM | SW-620 > 100 µM | MDA-MB-435 > 100 µM | OVCAR-3 > 100 µM | HCC 2998 > 100 µM | CCRF-CEM > 100 µM | OVCAR-5 > 100 µM | SNB-75 35.3 µM | MDA-MB-231 > 100 µM | U-251 > 100 µM | SK-MEL-28 > 100 µM | UO-31 > 100 µM | UACC-62 > 100 µM | K562 > 100 µM | A498 > 100 µM | SNB-19 > 100 µM | T47D > 100 µM | UACC-257 > 100 µM | NCI-H226 > 100 µM | BT-549 > 100 µM | Malme-3M > 100 µM | PC-3 > 100 µM | ACHN > 100 µM | NCI-H23 > 100 µM | DU-145 > 100 µM | HOP-62 > 100 µM | M14 > 100 µM | OVCAR-4 > 100 µM | HCT-116 > 100 µM | SK-MEL-5 > 100 µM | TK-10 > 100 µM | MCF7 > 100 µM | SF-295 > 100 µM | OVCAR-8 > 100 µM | LOX IMVI > 100 µM | A549 > 100 µM | NCI-H522 > 100 µM | Hs-578T > 100 µM
> 100 µM: HCT-15

CN(N)C(=O)NCCCl
> 100 µM: HCT-15
inactive: HOP-92 > 100 µM | SK-MEL-2 > 100 µM | KM12 > 100 µM | SF-268 > 100 µM | COLO 205 > 100 µM | SR > 100 µM | RPMI-8226 > 100 µM | SN12C > 100 µM | CAKI-1 > 100 µM | SK-OV-3 > 100 µM | SF-539 > 100 µM | HL-60 > 100 µM | RXF 393 > 100 µM | IGROV-1 > 100 µM | MDA-N > 100 µM | 786-0 > 100 µM | NCI-H460 > 100 µM | EKVX > 100 µM | HT-29 > 100 µM | MOLT-4 > 100 µM | SW-620 > 100 µM | MDA-MB-435 > 100 µM | OVCAR-3 > 100 µM | HCC 2998 > 100 µM | CCRF-CEM > 100 µM | OVCAR-5 > 100 µM | SNB-75 > 100 µM | MDA-MB-231 1.3 µM | U-251 > 100 µM | SK-MEL-28 > 100 µM | UO-31 > 100 µM | UACC-62 > 100 µM | K562 > 100 µM | A498 > 100 µM | SNB-19 > 100 µM | UACC-257 > 100 µM | BT-549 > 100 µM | Malme-3M > 100 µM | PC-3 > 100 µM | ACHN > 100 µM | NCI-H23 > 100 µM | DU-145 > 100 µM | HOP-62 > 100 µM | M14 > 100 µM | OVCAR-4 > 100 µM | HCT-116 > 100 µM | SK-MEL-5 > 100 µM | TK-10 > 100 µM | MCF7 > 100 µM | SF-295 > 100 µM | LOX IMVI > 100 µM | A549 > 100 µM | NCI-H522 > 100 µM | Hs-578T > 100 µM
active: NCI/ADR-RES 0.021 µM | NCI-H226 0.23 µM

Cc1cc2c(nn1)CCc1c-2no[n+]1[O-]
> 100 µM: HCT-15
inactive: SK-MEL-2 50.1 µM | KM12 > 100 µM | SF-268 > 100 µM | COLO 205 > 100 µM | SR > 100 µM | RPMI-8226 > 100 µM | SN12C > 100 µM | CAKI-1 > 100 µM | SK-OV-3 > 100 µM | SF-539 > 100 µM | NCI/ADR-RES > 100 µM | RXF 393 22.1 µM | IGROV-1 > 100 µM | MDA-N > 100 µM | 786-0 > 100 µM | NCI-H460 > 100 µM | EKVX > 100 µM | HT-29 > 100 µM | MOLT-4 > 100 µM | SW-620 > 100 µM | MDA-MB-435 > 100 µM | OVCAR-3 > 100 µM | HCC 2998 > 100 µM | CCRF-CEM > 100 µM | OVCAR-5 > 100 µM | SNB-75 > 100 µM | MDA-MB-231 > 100 µM | U-251 > 100 µM | SK-MEL-28 > 100 µM | UO-31 > 100 µM | UACC-62 > 100 µM | K562 > 100 µM | SNB-19 > 100 µM | T47D > 100 µM | UACC-257 > 100 µM | NCI-H226 > 100 µM | BT-549 > 100 µM | Malme-3M > 100 µM | PC-3 > 100 µM | ACHN > 100 µM | NCI-H23 > 100 µM | HOP-62 > 100 µM | M14 > 100 µM | OVCAR-4 > 100 µM | HCT-116 > 100 µM | SK-MEL-5 > 100 µM | TK-10 > 100 µM | MCF7 > 100 µM | SF-295 > 100 µM | OVCAR-8 > 100 µM | LOX IMVI > 100 µM | A549 > 100 µM | NCI-H522 > 100 µM | Hs-578T > 100 µM
